In brackets after ≈: the same amount, converted by molar mass. Activity calls are given as the source filed them. The rule behind the calls is not given here.
Tests used:
Neospora caninum = test: Antimicrobial activity against Neospora caninum up to 1 ug/ml; type: functional, organism-based
Plasmodium falciparum [1] = test: Antiplasmodial activity against Plasmodium falciparum NF54; type: functional, organism-based
Plasmodium falciparum [2] = test: Antiplasmodial activity against Plasmodium falciparum K1; type: functional, organism-based
Trypanosoma cruzi = test: Antitrypanosomal activity against Trypanosoma cruzi Tulahuen C4; type: functional, organism-based
Giardia intestinalis [3] = test: Antimicrobial activity against Giardia duodenalis G1; type: functional, organism-based
Giardia intestinalis [4] = test: Antimicrobial activity against Giardia duodenalis WB; type: functional, organism-based
Babesia divergens [5] = test: Antimicrobial activity against Babesia divergens 4201; type: functional, organism-based
Babesia divergens [6] = test: Antimicrobial activity against Babesia divergens 1903B; type: functional, organism-based
[7] = system: Trypanosoma brucei rhodesiense; test: Antitrypanosomal activity against Trypanosoma brucei rhodesiense STIB900; type: functional, organism-based
Leishmania donovani [8] = test: Antileishmanial activity against Leishmania donovani MHOM-ET-67/L82 amastigotes by axenic assay; type: functional, organism-based
[9] = Inhibition of Plasmodium falciparum ATP6
Leishmania donovani [10] = test: Antileishmanial activity against Leishmania donovani promastigotes; type: functional, organism-based
Pneumocystis carinii = test: Antimicrobial activity against Pneumocystis carinii at 0.14 ug/ml in feeder layer cells; type: functional
Leishmania major = test: Antileishmanial activity against Leishmania major amastigotes; type: functional, organism-based
Toxoplasma gondii = test: Antimicrobial activity against Toxoplasma gondii in normal human foreskin fibroblasts; type: functional, organism-based

C[C@@H]1CC[C@H]2[C@@H](C)C(=O)O[C@@H]3O[C@@]4(C)CC[C@@H]1[C@]32O4 [DEOXYARTEMISININ]
Activity (Neospora caninum): inactive
IC50 (Plasmodium falciparum [1]): > 10000 ng/mL
IC50 (Plasmodium falciparum [2]): > 10 µg/mL
IC50 (Trypanosoma cruzi): > 30 µg/mL
IC50 (Giardia intestinalis [3]): 28 µg/mL (≈ 105 µM)
IC50 (Giardia intestinalis [4]): 91 µg/mL (≈ 342 µM)
IC50 (Babesia divergens [5]): > 10 µg/mL
IC50 (Babesia divergens [6]): > 10 µg/mL
IC50 [7]: 34 µg/mL (≈ 128 µM)
IC50 (Leishmania donovani [8]): > 30 µg/mL

CC(C)(N)CNC(=O)C[C@H]1CC[C@]2(CC1)OO[C@]1(O2)C2CC3CC(C2)CC1C3 [OZ277]
Activity (Neospora caninum): inactive
IC50 (Plasmodium falciparum [1]): 0.91 ng/mL (≈ 0.00232 µM)
IC50 (Trypanosoma cruzi): 9.5 µg/mL (≈ 24.2 µM)
IC50 [9]: 7.7 µM
IC50 (Giardia intestinalis [3]): 49 µg/mL (≈ 125 µM)
IC50 (Giardia intestinalis [4]): 41 µg/mL (≈ 104 µM)
IC50 (Babesia divergens [5]): > 10 µg/mL
IC50 (Babesia divergens [6]): > 10 µg/mL
IC50 [7]: 0.56 µg/mL (≈ 1.43 µM)
IC50 (Leishmania donovani [8]): 24 µg/mL (≈ 61.1 µM)

O=C1C(O)=C([C@H]2CC[C@H](c3ccc(Cl)cc3)CC2)C(=O)c2ccccc21 [ATOVAQUONE]
IC50 (Babesia divergens [5]): 0.0087 µg/mL (≈ 0.0237 µM)
IC50 (Babesia divergens [6]): 0.0091 µg/mL (≈ 0.0248 µM)

CC(C)(N)CNC(=O)CC1CC[C@]2(CC1)OC[C@]1(O2)C2CC3CC(C2)CC1C3 (stereo partly specified)
Activity (Neospora caninum): inactive
IC50 (Plasmodium falciparum [1]): 4900 ng/mL (≈ 12.5 µM)
IC50 (Plasmodium falciparum [2]): 2.5 µg/mL (≈ 6.4 µM)
IC50 (Trypanosoma cruzi): 13 µg/mL (≈ 33.3 µM)
IC50 (Giardia intestinalis [3]): 18 µg/mL (≈ 46.1 µM)
IC50 (Giardia intestinalis [4]): 38 µg/mL (≈ 97.3 µM)
IC50 (Babesia divergens [5]): 7.5 µg/mL (≈ 19.2 µM)
IC50 (Babesia divergens [6]): 6.7 µg/mL (≈ 17.2 µM)
IC50 [7]: 0.77 µg/mL (≈ 1.97 µM)
IC50 (Leishmania donovani [8]): 20 µg/mL (≈ 51.2 µM)

C[C@@H]1CC[C@H]2[C@@H](C)C(=O)O[C@@H]3O[C@@]4(C)CC[C@@H]1[C@]32OO4 [ARTEMISININ]
Activity (Neospora caninum): inactive
IC50 (Plasmodium falciparum [1]): 4 ng/mL (≈ 0.0142 µM)
IC50 (Leishmania donovani [10]): 8 µg/mL (≈ 28.3 µM)
inhibition at 0.14 µg/mL (Pneumocystis carinii): 55%
IC50 (Plasmodium falciparum [2]): 0.002 µg/mL (≈ 0.00708 µM)
IC50 (Trypanosoma cruzi): > 30 µg/mL
IC50 (Leishmania major): 8 µg/mL (≈ 28.3 µM)
IC50 [9]: 0.079 µM
IC50 (Toxoplasma gondii): 2.3 µg/mL (≈ 8.15 µM)
IC50 (Giardia intestinalis [3]): 49 µg/mL (≈ 174 µM)
IC50 (Giardia intestinalis [4]): 65 µg/mL (≈ 230 µM)
IC50 (Babesia divergens [5]): > 10 µg/mL
IC50 (Babesia divergens [6]): > 10 µg/mL
IC50 [7]: 25 µg/mL (≈ 88.5 µM)
IC50 (Leishmania donovani [8]): 8.8 µg/mL (≈ 31.2 µM)

O=C(Cn1ccnc1[N+](=O)[O-])NCc1ccccc1 [BENZNIDAZOLE]
IC50 (Trypanosoma cruzi): 0.14 µg/mL (≈ 0.538 µM)

CCCSc1ccc2[nH]c(NC(=O)OC)nc2c1 [ALBENDAZOLE]
IC50 (Giardia intestinalis [3]): 0.018 µg/mL (≈ 0.0678 µM)
IC50 (Giardia intestinalis [4]): 0.019 µg/mL (≈ 0.0716 µM)

CCCCCCCCCCCCCCCCOP(=O)([O-])OCC[N+](C)(C)C [MILTEFOSINE]
IC50 (Leishmania donovani [8]): 0.2 µg/mL (≈ 0.491 µM)

Source: ChEMBL document CHEMBL1155772, “Peroxide bond-dependent antiplasmodial specificity of artemisinin and OZ277 (RBx11160)” (Antimicrob Agents Chemother, 2007)
